The results in this text go back to US20240336601A1 (Chulalongkorn University, priority 2020, published 2024).

Test [1] addresses interaction between PD-1 and PD-L1 (Homo sapiens, UniProt Q9NZQ7). As to the kind of experiment: PD-1/PD-L1 protein-protein interaction assay (ALPHA). To be noted: 2 nM His-tagged human PD-L1, 0.6 nM PD-1-Fc, AlphaScreen. The format is binding. For orientation: Bead proximity is the source of the signal in Alpha formats.
Experimental: PD-1′PD-L1 Protein-Protein Interaction Assay
Amplified Luminescent Proximity Homogeneous Assay (ALPHA) platform was used to evaluate the ability of the compounds to block the interaction between PD-1 and PD-L1. The assays were performed in half volume white 96-well plate in a final volume of 40 μl. Compounds at various concentrations were preincubated with 2 nM His tagged recombinant human PD-L1 protein and 0.6 nM recombinant PD-1 protein with Fc-tag (both reagents were purchased from AcroBiosystems) for 40 minutes. After the preincubation, 20 μg/mL of Alphascreen Ni chelate donor beads (PerkinElmer, USA) and Protein A acceptor beads (PerkinElmer, USA) were added into the well and incubated under reduced light at 25° C. for 120 minutes. The signal was measured with the EnSight Multimode Plate Reader. IC50 values were calculated from the four-parameter logistic curve fit.
A further test deals with T1, PD-1/PD-L1 interaction (Homo sapiens, UniProt Q9NZQ7).
T1 construct: expressed in transfected cells
As to the kind of experiment: PD-1/PD-L1 blockage cell-based bioassay (Jurkat NFAT luciferase / CHO-PDL1 co-culture). To be noted: Jurkat NFAT cells co-cultured with CHO-PDL1 cells, 6 h, luminescence.

Molecules are shown by their SMILES.

interaction between PD-1 and PD-L1, sequence (Q9NZQ7 19-238 limits assumed): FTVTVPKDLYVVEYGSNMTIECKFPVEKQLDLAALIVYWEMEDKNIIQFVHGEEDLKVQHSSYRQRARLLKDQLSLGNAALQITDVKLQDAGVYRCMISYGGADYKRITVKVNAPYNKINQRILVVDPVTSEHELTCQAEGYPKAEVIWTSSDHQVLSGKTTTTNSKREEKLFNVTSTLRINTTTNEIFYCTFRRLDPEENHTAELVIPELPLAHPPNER
T1 sequence (Q9NZQ7 19-290): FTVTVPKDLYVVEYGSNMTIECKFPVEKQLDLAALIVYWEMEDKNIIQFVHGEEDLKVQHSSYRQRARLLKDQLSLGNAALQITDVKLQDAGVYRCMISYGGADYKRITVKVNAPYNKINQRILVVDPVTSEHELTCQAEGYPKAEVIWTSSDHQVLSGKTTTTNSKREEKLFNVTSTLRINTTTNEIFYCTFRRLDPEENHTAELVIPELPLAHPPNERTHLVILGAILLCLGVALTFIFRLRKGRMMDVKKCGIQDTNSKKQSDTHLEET
Experimental for PD-1/PD-L1 interaction: PD-1/PD-L1 Blockage Cell-Based Bioassay
Jurkat T cells expressing human PD-1 and luciferase gene reporter driven by TCR-mediated NFAT response element (Jurkat NFAT) were co-cultured with CHO-kl cells expressing human PD-L1 and surface-bound TCR activator (CHO-PDL1). […] CHO-PDL1 cells (20,000 cells/well) were seeded overnight. Compounds were added on CHO-PDL1 and incubated for 2 h at 37° C. Jurkat NFAT cells (20,000 cells/well) were diluted in RPMI assay medium (RPMI1640 with 1% FBS) and added into each well. After co-incubation for 6 h at 37° C., luminescence was determined by adding Bio-Glo™ Luciferase reagent (Promega) and measured with a luminescence plate reader. EC50 values were calculated from the four-parameter concentration-response curves.

For `COc1cc(-n2ncc3c(-c4cccc(-c5ccc(CN6CC7(CNC(=O)C7)C6)c(OC)n5)c4Cl)cccc32)cc(OC)c1CN1CC[C@@H](O)C1` [Example 133, (R)-2-((6-(2-chloro-3-(1-(4-((3-hydroxypyrrolidin-1-yl)methyl)-3,5-dimethoxyphenyl)-1H-indazol-4-yl)phenyl)-2-methoxypyridin-3-yl)methyl)-2,6-diazaspiro[3.4]octan-7-one], the concentration for half-maximal inhibition (IC50) – broadly, the point on the concentration scale where inhibition reaches its midpoint – is 1 to 10 nM in test [1] and less than 200 nM at PD-1/PD-L1 interaction.
On to `COc1cc(-n2ncc3c(-c4cccc(-c5ccc(CN6CC[C@@H](C(=O)O)C6)c(OC)n5)c4Cl)cccc32)cc(OC)c1CN1CC2(CNC(=O)C2)C1` [Example 130, (R)-1-((6-(2-chloro-3-(1-(3,5-dimethoxy-4-((7-oxo-2,6-diazaspiro[3.4]octan-2-yl)methyl)phenyl)-1H-indazol-4-yl)phenyl)-2-methoxypyridin-3-yl)methyl)pyrrolidine-3-carboxylic acid], for which the half-inhibitory concentration (IC50) is less than 1 nM in test [1] and less than 200 nM against PD-1/PD-L1 interaction.
For `COc1cc(-n2ccc3c(-c4cccc(-c5ccc(CN6CC(C)(O)C6)c(OC)n5)c4Cl)cccc32)cc(OC)c1CN1CC2(CNC(=O)C2)C1` [Example 84, 2-(4-(4-(2-chloro-3-(5-((3-hydroxy-3-methylazetidin-1-yl)methyl)-6-methoxypyridin-2-yl)phenyl)-1H-indol-1-yl)-2,6-dimethoxybenzyl)-2,6-diazaspiro[3.4]octan-7-one], the figures for the IC50 (in test [1]; at PD-1/PD-L1 interaction) were less than 1 nM and 201 to 2000 nM, respectively.
Take `COc1cc(-n2ncc3c(-c4cccc(-c5ccc(CN[C@H]6C[C@@H](O)C6)c(OC)n5)c4Cl)cccc32)cc(OC)c1CN1CC(C)(C(N)=O)C1` [Example 105, 1-(4-(4-(2-chloro-3-(5-(((cis-3-hydroxycyclobutyl)amino)methyl)-6-methoxypyridin-2-yl)phenyl)-1H-indazol-1-yl)-2,6-dimethoxybenzyl)-3-methylazetidine-3-carboxamide]: the results for the IC50 (in test [1]; against PD-1/PD-L1 interaction) were less than 1 nM and less than 200 nM, respectively.
As to `COc1cc(-n2ncc3c(-c4cccc(-c5ccc(CN6CC7(CNC(=O)C7)C6)c(OC)n5)c4Cl)cccc32)ncc1CN[C@H]1C[C@@H](O)C1` [Example 111, 2-((6-(2-chloro-3-(1-(5-(((cis-3-hydroxycyclobutyl)amino)methyl)-4-methoxypyridin-2-yl)-1H-indazol-4-yl)phenyl)-2-methoxypyridin-3-yl)methyl)-2,6-diazaspiro[3.4]octan-7-one], the IC50 in test [1] was less than 1 nM; on PD-1/PD-L1 interaction it was 201 to 2000 nM.
For the molecule `COc1cc(-n2ncc3c(-c4cccc(-c5ccc(CNC[C@@H]6CCC(=O)N6)c(OC)n5)c4Cl)cccc32)cc(OC)c1CN1CC(C)(C(=O)NC2CC2)C1` [Example 88, (S)-1-(4-(4-(2-chloro-3-(6-methoxy-5-((((5-oxopyrrolidin-2-yl)methyl)amino)methyl)pyridin-2-yl)phenyl)-1H-indazol-1-yl)-2,6-dimethoxybenzyl)-N-cyclopropyl-3-methylazetidine-3-carboxamide], the results for the IC50 (in test [1]; against PD-1/PD-L1 interaction) were 1 to 10 nM and 201 to 2000 nM, respectively.
For `COc1cc(-n2ccc3c(-c4cccc(-c5ccc(CNC[C@@H]6CCC(=O)N6)c(OC)n5)c4Cl)cccc32)cc(OC)c1CNCC(C)(C)C(=O)O` [Example 42], in that order: less than 1 nM and less than 200 nM.
For `COc1cc(-n2ncc3c(-c4cccc(-c5ccc(C6=NCCN6)c(OC)n5)c4Cl)cccc32)cc(OC)c1CNC[C@H]1C[C@@H](O)C1` [Example 77, cis-3-(((4-(4-(2-chloro-3-(5-(4,5-dihydro-1H-imidazol-2-yl)-6-methoxypyridin-2-yl)phenyl)-1H-indazol-1-yl)-2,6-dimethoxybenzyl)amino)methyl)cyclobutanol], the figures for the IC50 (in test [1]; at PD-1/PD-L1 interaction) were less than 1 nM and 201 to 2000 nM, respectively.
On to `COc1cc(-n2ncc3c(-c4cccc(Nc5nc(C(F)F)nc6cc(CN7CC[C@@H](O)C7)cnc56)c4C)cccc32)cc(OC)c1CN1CCC(C(=O)O)CC1` [Example 163, (R)-1-(4-(4-(3-((2-(difluoromethyl)-7-((3-hydroxypyrrolidin-1-yl)methyl)pyrido[3,2-d]pyrimidin-4-yl)amino)-2-methylphenyl)-1H-indazol-1-yl)-2,6-dimethoxybenzyl)piperidine-4-carboxylic acid], for which the IC50 in test [1] was less than 1 nM; at PD-1/PD-L1 interaction, 201 to 2000 nM.
For `COc1cc(-n2ncc3c(-c4cccc(-c5ccc(CN6CC7(CNC(=O)C7)C6)c(OC)n5)c4Cl)cccc32)cc(OC)c1CN1CC(C)(C(N)=O)C1` [Example 103, 1-(4-(4-(2-chloro-3-(6-methoxy-5-((7-oxo-2,6-diazaspiro[3.4]octan-2-yl)methyl)pyridin-2-yl)phenyl)-1H-indazol-1-yl)-2,6-dimethoxybenzyl)-3-methylazetidine-3-carboxamide], the IC50 was 1 to 10 nM in test [1] and less than 200 nM against PD-1/PD-L1 interaction.
For `COc1cc(-n2ncc3c(-c4cccc(-c5nc6cc(CN7CC[C@@H](C(=O)O)C7)cc(C#N)c6o5)c4C)cccc32)cc(OC)c1CN1CC[C@H](O)C1` [Example 155, (R)-1-((7-cyano-2-(3-(1-(4-(((S)-3-hydroxypyrrolidin-1-yl)methyl)-3,5-dimethoxyphenyl)-1H-indazol-4-yl)-2-methylphenyl)benzo[d]oxazol-5-yl)methyl)pyrrolidine-3-carboxylic acid], in that order: less than 1 nM and less than 200 nM.
In the same order, the values of `COc1cc(-n2ncc3c(-c4cccc(-c5ccc(C6=NCCN6)c(OC)n5)c4Cl)cccc32)cc(OC)c1CNC[C@@H]1CCC(=O)N1` [Example 74, (S)-5-(((4-(4-(2-chloro-3-(5-(4,5-dihydro-1H-imidazol-2-yl)-6-methoxypyridin-2-yl)phenyl)-1H-indazol-1-yl)-2,6-dimethoxybenzyl)amino)methyl)pyrrolidin-2-one] are less than 1 nM and less than 200 nM.
For `COc1cc(-n2ncc3c(-c4cccc(-c5ccc(CNC[C@@H]6CCC(=O)N6)c(OC)n5)c4Cl)cccc32)cc(OC)c1CNCC1(C(=O)O)CC1` [Example 66, (S)-1-(((4-(4-(2-chloro-3-(6-methoxy-5-((((5-oxopyrrolidin-2-yl)methyl)amino)methyl)pyridin-2-yl)phenyl)-1H-indazol-1-yl)-2,6-dimethoxybenzyl)amino)methyl)cyclopropanecarboxylic acid], in that order: less than 1 nM and less than 200 nM.
With `COc1cc(-n2ccc3c(-c4cccc5c4ccn5-c4cc(OC)c(CNC[C@@H]5CCC(=O)N5)c(OC)c4)cccc32)cc(OC)c1CNC[C@@H]1CCC(=O)N1` [Example 64, (5S,5′S)-5,5′-((((1H,1′H-[4,4′-biindole]-1,1′-diylbis(2,6-dimethoxy-4,1-phenylene))bis(methylene))bis(azanediyl))bis(methylene))bis(pyrrolidin-2-one)], the 50% inhibitory concentration (IC50) was 1 to 10 nM in test [1] and greater than 2000 nM on PD-1/PD-L1 interaction.
Consider `COc1cc(-n2ncc3c(-c4cccc(-c5ccc(CN[C@H]6C[C@@H](O)C6)c(OC)n5)c4Cl)cccc32)cc(OC)c1CN1CC(C)(C(=O)NC2CC2)C1` [Example 100, 1-(4-(4-(2-chloro-3-(5-(((cis-3-hydroxycyclobutyl)amino)methyl)-6-methoxypyridin-2-yl)phenyl)-1H-indazol-1-yl)-2,6-dimethoxybenzyl)-N-cyclopropyl-3-methylazetidine-3-carboxamide], for which the IC50 in test [1] is less than 1 nM; against PD-1/PD-L1 interaction it was less than 200 nM.
